Reference: patent publication US6469028B1, “Synthesis and use of retinoid compounds having negative hormone and/or anatgonist activities” (Allergan, Inc., priority 1995, dated 2002)

Key:
Experiment in all cases: Holoreceptor transactivation assay
Assay type in all cases: cell-based
RXRβ = conditions: relative to all trans retinoic acid
Excerpt: (§1) A holoreceptor transactivation assay and a ligand binding assay which measure the antagonist/agonist like activity of the compounds of the invention, or their ability to bind to the several retinoid receptor subtypes, respectively, are described in published PCT Application No. WO93/11755 (particularly on pages 30-33 and 37-41) published on Jun. 24, 1993, the specification of which is also incorporated herein by reference. A description of the holoreceptor transactivation assay is also provided below.
(§2) CV1 cells (5,000 cells/well) were transfected with an RAR reporter plasmid MTV-TREp-LUC (50 ng) along with one of the RAR expression vectors (10 ng) in an automated 96-well format by the calcium phosphate procedure of Heyman et al. Cell 68: 397-406. For RXR-α and RXR-γ transactivation assays, an RXR-responsive reporter plasmid CRBPII-tk-LUC (50 ng) along with the appropriate RXR expression vectors (10 ng) was used substantially as described by Heyman et al. above, and Allegretto et al. J. Biol. Chem. 268: 26625-26633. For RXR-β transactivation assays, an RXR-responsive reporter plasmid CPRE-tk-LUC ([…]) along with RXR-β expression vector ([…]) was used as described in above. These reporters contain DRI elements from human CRBPII and certain DRI elements from promotor, respectively (see Mangelsdorf et al. The Retinoids: Biology Chemistry and Medicine, pp. 319-349, Raven Press Ltd., New York and Heyman et al., cited above). A β-galactosidase (50 ng) expression vector was used as an internal control in the transfections to normalize for variations in transfection efficiency. The cells were transfected in triplicate for 6 hours, followed by incubation with retinoids for 36 hours, and the extracts were assayed for luciferase and […] activities. The detailed experimental procedure for holoreceptor transactivations has been described in Heyman et al. above, and Allegretto et al. cited above. The results obtained in this assay are expressed in EC50 numbers, as they are also in the chimeric receptor transactivation assay. The Heyman et al. Cell 68: 397-406, Allegretto et al. J. Biol. Chem. 268: 26625-26633, and Mangelsdorf et al. The Retinoids: Biology, Chemistry, and Medicine, pp. 319-349, Raven Press Ltd., New York, are expressly incorporated herein by reference. The results of ligand binding assay are expressed in Kd numbers. (See Cheng et al. Biochemical Pharmacology 22: 3099-3108, expressly incorporated herein by reference.)

RARγ = target: T1, RARγ (Homo sapiens, UniProt P13631); parameters: expressed in transfected cells; host or cells: CV1 cells; conditions: relative to all trans retinoic acid; read-out: Transactivation Assay Efficacy (% of RA activity) RARγ
T1 sequence (P13631 1-454): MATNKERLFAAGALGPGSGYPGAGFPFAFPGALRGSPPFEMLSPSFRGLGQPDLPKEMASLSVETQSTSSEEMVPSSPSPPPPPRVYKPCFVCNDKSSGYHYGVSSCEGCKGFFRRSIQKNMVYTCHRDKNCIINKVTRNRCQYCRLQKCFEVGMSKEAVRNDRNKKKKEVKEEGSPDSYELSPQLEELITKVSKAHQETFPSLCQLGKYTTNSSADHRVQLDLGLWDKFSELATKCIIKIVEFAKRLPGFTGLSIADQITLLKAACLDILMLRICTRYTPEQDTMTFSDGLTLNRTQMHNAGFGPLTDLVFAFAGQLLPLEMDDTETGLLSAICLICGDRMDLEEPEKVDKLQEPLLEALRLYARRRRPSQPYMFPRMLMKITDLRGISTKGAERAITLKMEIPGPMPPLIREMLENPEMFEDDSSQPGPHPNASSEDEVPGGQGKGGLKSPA
Excerpt: as §1, §2
(§3) A compound should not cause significant activation of a reporter gene through a given receptor subtype (RAR-α, RAR-β or RAR-γ) in the holoreceptor transactivation assay, in order to qualify as an RAR antagonist with utility in the present invention.

RARβ = target: T2, RARβ (Homo sapiens, UniProt P10826); parameters: expressed in transfected cells; host or cells: CV1 cells; conditions: relative to all trans retinoic acid; read-out: Transactivation Assay Efficacy (% of RA activity) RARβ
T2 sequence (P10826 1-448 isoform P10826-2): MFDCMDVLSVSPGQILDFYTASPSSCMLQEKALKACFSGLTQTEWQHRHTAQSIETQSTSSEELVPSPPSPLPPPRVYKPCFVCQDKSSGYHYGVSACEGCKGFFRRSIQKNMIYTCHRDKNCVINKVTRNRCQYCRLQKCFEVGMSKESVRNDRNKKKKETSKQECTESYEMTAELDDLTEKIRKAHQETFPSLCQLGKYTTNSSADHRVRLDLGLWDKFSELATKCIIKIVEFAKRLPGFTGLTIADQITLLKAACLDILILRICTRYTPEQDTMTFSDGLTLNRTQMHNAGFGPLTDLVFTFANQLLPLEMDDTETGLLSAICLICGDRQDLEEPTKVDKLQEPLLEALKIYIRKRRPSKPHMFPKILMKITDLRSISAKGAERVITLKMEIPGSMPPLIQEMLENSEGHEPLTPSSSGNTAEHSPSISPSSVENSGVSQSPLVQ
Excerpt: as §1, §2, §3

RARα = target: T3, RARα (Homo sapiens, UniProt P10276); parameters: expressed in transfected cells; host or cells: CV1 cells; conditions: relative to all trans retinoic acid; read-out: Transactivation Assay Efficacy (% of RA activity) RARα
T3 sequence (P10276 1-462): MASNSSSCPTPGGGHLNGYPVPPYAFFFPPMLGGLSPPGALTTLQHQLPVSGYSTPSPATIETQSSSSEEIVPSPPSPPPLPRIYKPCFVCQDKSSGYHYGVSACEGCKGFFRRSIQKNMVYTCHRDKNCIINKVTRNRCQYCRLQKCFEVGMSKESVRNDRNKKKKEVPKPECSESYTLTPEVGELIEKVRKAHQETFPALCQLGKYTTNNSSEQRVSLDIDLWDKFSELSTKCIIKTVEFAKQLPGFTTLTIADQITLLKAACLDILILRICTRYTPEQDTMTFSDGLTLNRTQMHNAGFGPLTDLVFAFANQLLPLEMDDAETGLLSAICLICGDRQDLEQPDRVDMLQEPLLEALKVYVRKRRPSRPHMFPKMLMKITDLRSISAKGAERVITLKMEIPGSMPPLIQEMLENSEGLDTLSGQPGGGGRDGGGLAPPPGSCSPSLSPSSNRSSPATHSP
Excerpt: as §1, §2, §3

| Structure (SMILES) | Transactivation Assay Efficacy (% of RA activity) RXRβ (RXRβ) | Emax (RARγ) | Emax (RARβ) | Emax (RARα) |
| --- | --- | --- | --- | --- |
| Cc1ccc(C2=CCC(C)(C)c3ccc(C#Cc4ccc(C(=O)O)cc4)cc32)s1 [Compound 34, 4-[(5,6-Dihydro-5,5-dimethyl-8-(5-methyl-2-thienyl)-2-naphthalenyl)ethynyl]benzoic acid] | 0.00 % of RA activity | 2% | 5% | 3% |
| Cc1ccc(C2=CCC(C)(C)c3ccc(C(=O)Nc4ccc(C(=O)O)cc4)cc32)cc1 [Compound 36, 4-[[(5,6-Dihydro-5,5-dimethyl-8-(4-methylphenyl)-2-naphthalenyl)carbonyl]amino]-benzoic acid] | 7.00 % of RA activity | 0% | 5% | 1% |
| Cc1ccc(C2=CCC(C)(C)c3ccc(C(=O)Oc4ccc(C(=O)O)cc4)cc32)cc1 [Compound 39, 4-[[(5,6-Dihydro-5,5-dimethyl-8-(4-methylphenyl)-2-naphthalenyl)carbonyl]oxy]-benzoic acid] | 0.00 % of RA activity | 9% | 7% | 1% |
| Cc1ccc(C2=CCC(C)(C)c3ccc(C(=O)Nc4ccc(C(=O)O)c(F)c4)cc32)cc1 [Compound 41, 2-Fluoro-4-[[(5,6-dihydro-5,5-dimethyl-8-(4methylphenyl)-2-naphthalenyl)carbonyl]amino]-benzoic acid] | 0.00 % of RA activity | 6% | 5% | 3% |
| Cc1ccc(C2=CCC(C)(C)c3ccc(/C=C/c4ccc(C(=O)O)cc4)cc32)cc1 [Compound 45] | 8.00 % of RA activity | 7% | 0% | 2% |
| Cc1ccc(C2=CCC(C)(C)c3ccc(N=Nc4ccc(C(=O)O)cc4)cc32)cc1 [Compound 46b, 4-[(5,6-dihydro-5,5-dimethyl-8-(4-methylphenyl)-2-naphthalenyl)azo]-benzoic acid] | 0.00 % of RA activity | 3% | 5% | 4% |
| CC(/C=C/C=C(\C)c1ccc2c(c1)C(c1ccc(C)cc1)=CCC2(C)C)=C\C(=O)O [Compound 52, (E,E,E)-3-methyl-7-(5,6-dihydro-5,5-dimethyl-8-(4-methylphenyl)-2-naphthalenyl)-2,4,6-octatrienoic acid] | 0.00 % of RA activity | 3% | 15% | 0% |
| Cc1ccc(C2=CCC(C)(C)c3ccc(C#Cc4ccc(C(=O)O)cc4)cc32)cc1 [Compound 60, 4-[(5,6-dihydro-5,5-dimethyl-8-(4-methylphenyl)-2-naphthalenyl)ethynyl]benzoic acid] | 0.00 % of RA activity | 4% | 1% | 0% |
| CC(C)(C)c1ccc(C2=CCC(C)(C)c3ccc(C#Cc4ccc(C(=O)O)cc4)cc32)cc1 [Compound 61, 4-[(5,6-Dihydro-5,5-dimethyl-8-(4-(1,1-dimethylethyl)phenyl)-2-naphthalenyl)ethynyl]benzoic acid] | 0.00 % of RA activity | 0% | 2% | 2% |
| Cc1ccc(C2=CCC(C)(C)c3ccc(C(=S)Nc4ccc(C(=O)O)c(F)c4)cc32)cc1 [Compound 63, 2-fluoro-4-[[(5,6-dihydro-5,5-dimethyl-8-(4-methylphenyl)-2-naphthalenyl)thiocarbonyl]amino]-benzoic acid] | 0.00 % of RA activity | 7% | 2% | 2% |
| Cc1ccc(C2=CCC(C)(C)c3cc(C(=O)C=Cc4ccc(C(=O)O)cc4)ccc32)cc1 [Compound 101, 4-[3-oxo-3-(7,8-dihydro-5-(4-methylphenyl)-8,8-dimethyl-2-naphthalenyl)-1-propenyl]-benzoic acid] | 0.00 % of RA activity | 2% | 4% | 0% |
| CC1(C)CC=C(c2ccccc2)c2ccc(C(=O)C=Cc3ccc(C(=O)O)cc3)cc21 [Compound 103, 4-[3-oxo-3-(7,8-dihydro-5-phenyl-8,8-dimethyl-2-naphthalenyl)-1-propenyl]-benzoic acid] | 0.0 % of RA activity | 7% | 12% | 4% |
